Test: 35 day feeding study in pigs: fatty acid composition of pork tissues (belly, loin, ham, skin) by GC-FID of FAMEs
Type: in vivo
Experimental: A 35 day study was conducted to determine whether pigs fed a diet containing SDA could produce meat with improved fatty acid profiles including increased levels of SDA, EPA, and DHA.
A control diet (Treatment 1) formulated to meet or exceed NRC (1998) nutrient requirements for pigs in the late finishing phase (approximately 80-120 kg BW containing 1.14% corn oil and no added SDA ethyl ester (70% w/w SDA) were fed ad libitum during an acclimation period of at least 1 week duration. Ethoxyquin was included in all diets as an antioxidant at a concentration of 150 parts per million (0.015%, as-fed basis), the maximum level allowed by FDA regulation in animal feeds. The same control diet was fed ad libitum to the control pigs (pen receiving Treatment 1) throughout a 35-day test period. Four test diets (Treatment 2, 3, 4, and 5) with SDA ethyl ester substituted for corn oil to provide 0.2, 0.4, 0.6 and 0.8% (w/w SDA active ingredient, as-is basis) were fed ad libitum to one pen of four pigs throughout the 35-day test period Table 4). All diets were fed in meal form.
All pigs were individually weighed at initiation of the acclimation and test period, and immediately prior to slaughter. Feed consumption per pen was recorded. […] Live weights prior to slaughter and hot carcass weights were recorded. […] Prior to removing the sample for sensory and fatty and proximate analysis from the belly the firmness of the belly was evaluated using a flop test. At 24 hr postmortem fat thickness (10th rib), loin eye area (10th rib), visual color, firmness and marbling, Minolta color (L*a*b*), pH, and drip loss were measured. […]
In order to evaluate the fatty acid composition of pig tissues (loin, ham, skin, and belly), samples were stored at −80° C. until evaluation. […] Resultant fatty acid methyl esters (FAME's) were separated by capillary gas chromatography (GC) and detected by flame ionization detector (FID). […] Quantification was achieved by using an internal standard (c15:0 triacylglyceride (TAG) for pig tissue samples and c17:0 TAG for diet samples). […]

## CC/C=C\C/C=C\C/C=C\C/C=C\CCCCC(=O)O [SDA, stearidonic acid]
0.2-0.8% SDA in feed, 35 days
  enrichment of SDA, ETA, and EPA in belly, loin, ham, and skin tissues: enriched in belly, loin, ham, and skin tissues in a dose dependent manner
SDA supplementation, 35 days
  levels of SDA, ETA, EPA, DPA in belly, loin, ham and skin tissues and DHA in ham tissue as compared to the control: higher levels
Pigs fed SDA for the last 35 days prior to slaughter
  omega 3 fatty acid enrichment in belly, loin, ham and skin tissues as compared to the control: significant increase
